Measured values taken from PMC11915509, “Small molecule inhibitors of hnRNPA2B1–RNA interactions reveal a predictable sorting of RNA subsets into extracellular vesicles” (Nucleic Acids Research, 2025).

Columns and labels:
hnRNPA2B1 isoform = test system: hnRNPA2B1 isoform; parameters: method as in PMID 29379020; details: hnRNPA2B1 isoform ref 45; read-out: observed Kd; cited from earlier work
GST-hnRNPA2B1 = molecular target: T1, GST-hnRNPA2B1 (Homo sapiens, UniProt P22626); experiment: AlphaScreen binding kinetics with EXOmotif probe; details: 30 nM GST-hnRNPA2B1, time frame of 2 h
T1 construct: purified a human full-length, GST-tagged protein expressed in Escherichia coli cells; made in house; host or cells: E. coli BL21 (DE3)
T1 sequence (P22626 whole entry): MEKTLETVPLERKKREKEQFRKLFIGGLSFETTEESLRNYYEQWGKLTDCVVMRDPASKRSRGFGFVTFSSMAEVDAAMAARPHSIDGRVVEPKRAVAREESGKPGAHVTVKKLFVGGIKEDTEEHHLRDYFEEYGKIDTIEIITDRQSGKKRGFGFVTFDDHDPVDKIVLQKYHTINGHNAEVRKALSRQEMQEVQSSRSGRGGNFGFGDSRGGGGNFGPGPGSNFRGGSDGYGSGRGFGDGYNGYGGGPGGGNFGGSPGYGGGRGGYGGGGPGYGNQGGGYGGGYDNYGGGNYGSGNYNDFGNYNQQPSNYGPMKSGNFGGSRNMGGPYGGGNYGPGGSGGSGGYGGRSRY
Method: AlphaScreen assay was used to study the interaction between hnRNA2B1 and different biotinylated single-stranded RNA probes: EXO RNA (5′-BTeg- […]), RNA 114 (5′- BTeg-[…]), and RNA 276 (5′-B-Teg- […]). The assays were performed in OptiPlate-384-well plates (PerkinElmer, 6007299) in 20 μl final volume. The ligands were diluted in AlphaBuffer [25 mM HEPES, pH 7.4, 100 mM NaCl, 0.01% bovine serum albumin (BSA)] and tested using AlphaScreen GST Detection Kit (PerkinElmer, 6760603C). For the assay optimization, different concentrations of the RNA probes (0–100 nM) were incubated with different concentrations of GST-hnRNPA2B1 (0–60 nM) in the presence of streptavidin Donor beads and anti-GST-Acceptor beads (PerkinElmer) (20 μg/ml final concentration). […]
Figure 2. […] Dissociation constants (Kd) were determined from nonlinear regression one-site binding model in GraphPad Prism®, version 9.0. […] Association (Kon) and dissociation (Koff) rate constants and equilibrium dissociation constants (koff/kon) were determined using nonlinear regression association kinetic model of multiple ligand concentration in GraphPad Prism®, version 9.0. […] Densitometric quantification of protein fractions were normalized to the input. […] (G) Distribution of positive (EXOmotif) and negative (ARE) protein–RNA probe interactions calculated in the primary drug screening. […]

Substance | Kd (hnRNPA2B1 isoform) | association rate constant kon (GST-hnRNPA2B1)
RNA 114: RNA oligo 5′-AAGGACUAGC | 114 nM | 
EXOmotif: single-stranded RNA oligo 5′-GGGGAGGUUAGGGAGGAGGGGGGUAGGCGCC (RNA, backbone not given here) |  | 523 664 M^−1min^−1
